Where no end group is shown, it is not given here.
Tests used:
[1] = target: DRB1*0301 (DR3) (Homo sapiens, UniProt P01903+P01911, A100K/A102G/A103R/A169T/F55Y/I96L/K41T/L162R/M171V/P40S/Q125H/Q178H/Q39Y/R42S/S66N/T106N/T262R/W38E/Y61H); experiment: HLA class II peptide binding assay, purified HLA; conditions: unit not given
[2] = tested on: HLA-DR molecules (DR1, DR4w4, DR7, DRB5*0101, DRB1*1501, DRB1*1101, DRB1*0802, DRB1*1302); experiment: DR supertype cross-reactive binding; design: species or system human; conditions: for DR147 Cross-binding: number of DR1, DR4w4, DR7 bound, Table XXVIII
[3] = target: HLA-B*0702 (Homo sapiens, UniProt P01889); assay type: binding; conditions: Table XXIV, B7 supermotif peptides
[4] = Table XIX, DR supermotif peptides
[5] = Table XXa, DR 3a motif peptides

DR3 binding data [1, 4] | DR3 binding data [1, 5] | Compound | other results
−0.0025 | −0.0025 | DLTLGLEPSEEEAPR | –
0.0220 | 0.0220 | CC(C)C[C@H](NC(=O)[C@H](CCC(N)=O)NC(=O)[C@H](CC(=O)O)NC(=O)[C@H](Cc1c[nH]c2ccccc12)NC(=O)[C@@H]1CCCN1C(=O)[C@@H](NC(=O)[C@@H](NC(=O)[C@H](Cc1c[nH]cn1)NC(=O)[C@@H](N)C(C)C)[C@@H](C)O)C(C)C)C(=O)N[C@@H](Cc1ccccc1)C(=O)N[C@@H](CCCNC(=N)N)C(=O)N[C@@H](CC(N)=O)C(=O)N1CCC[C@H]1C(=O)N[C@@H](Cc1c[nH]cn1)C(=O)N[C@@H](CCC(N)=O)C(=O)O | –
−0.0027 | −0.0027 | CC(C)C[C@H](NC(=O)[C@H](CS)NC(=O)[C@H](Cc1c[nH]cn1)NC(=O)[C@H](CCCNC(=N)N)NC(=O)[C@H](C)NC(=O)[C@H](CC(N)=O)NC(=O)[C@@H](NC(=O)[C@H](Cc1ccc(O)cc1)NC(=O)[C@H](CCC(=O)O)NC(=O)[C@H](CCCNC(=N)N)NC(=O)[C@@H]1CCCN1C(=O)[C@H](CC(C)C)NC(=O)CNC(=O)[C@H](CCC(N)=O)NC(=O)[C@@H](N)CC(C)C)C(C)C)C(=O)O | –
– | −0.0025 | DNLYYWDQDPPERGA | –
0.0083 | 0.0083 | CSCC[C@H](NC(=O)CNC(=O)[C@H](CC(C)C)NC(=O)CNC(=O)[C@H](Cc1ccc(O)cc1)NC(=O)[C@@H](N)CS)C(=O)N[C@@H](CCC(=O)O)C(=O)N[C@@H](Cc1c[nH]cn1)C(=O)N[C@@H](CC(C)C)C(=O)N[C@@H](CCCNC(=N)N)C(=O)N[C@@H](CCC(=O)O)C(=O)N[C@H](C(=O)N[C@@H](CCCNC(=N)N)C(=O)N[C@@H](C)C(=O)N[C@H](C(=O)O)C(C)C)C(C)C | –
– | −0.0027 | ETEYHADGGKVPIKW | –
– | −0.0025 | KNGVVKDVFAFGGAV | –
– | 0.0520 | SLSFLQDIQEVQGYV | –
– | 0.0250 | GDLVDAEEYLVPQQG | –
0.0270 | 0.0270 | CC(C)C[C@H](NC(=O)[C@@H]1CCCN1C(=O)[C@@H](NC(=O)[C@@H](NC(=O)[C@@H]1CCCN1C(=O)[C@H](CC(=O)O)NC(=O)[C@H](CCC(=O)O)NC(=O)[C@H](CO)NC(=O)[C@H](Cc1ccc(O)cc1)NC(=O)[C@H](CCCNC(=N)N)NC(=O)[C@H](CCC(N)=O)NC(=O)[C@@H](N)CC(C)C)[C@@H](C)O)C(C)C)C(=O)N1CCC[C@H]1C(=O)N[C@@H](CO)C(=O)N[C@@H](CCC(=O)O)C(=O)O | –
– | −0.0027 | LVTYNTDTFESMPNP | –
– | −0.0027 | NQEVTAEDGTQRCEK | –
– | −0.0027 | SLAFLPESFDGDPAS | –
−0.0027 | −0.0027 | CC(C)C[C@H](NC(=O)[C@@H]1CCCN1C(=O)[C@H](C)NC(=O)[C@@H](NC(=O)[C@H](CC(N)=O)NC(=O)[C@H](CO)NC(=O)[C@H](C)NC(=O)[C@@H]1CCCN1C(=O)[C@H](CC(=O)O)NC(=O)CNC(=O)[C@H](CC(=O)O)NC(=O)[C@H](Cc1ccccc1)NC(=O)[C@H](CO)NC(=O)[C@H](CCC(=O)O)NC(=O)[C@@H]1CCCN1)[C@@H](C)O)C(=O)O | –
– | 0.0047 | NKEILDEAYVMAGVG | –
– | 0.0630 | CSCC[C@H](NC(=O)[C@H](CC(=O)O)NC(=O)[C@H](CC(=O)O)NC(=O)[C@H](CC(=O)O)NC(=O)[C@H](CCC(=O)O)NC(=O)[C@H](CC(C)C)NC(=O)[C@H](CC(C)C)NC(=O)[C@H](CO)NC(=O)[C@H](CCCNC(=N)N)NC(=O)[C@@H](N)Cc1ccc(O)cc1)C(=O)NCC(=O)N[C@@H](CC(=O)O)C(=O)N[C@@H](CC(C)C)C(=O)N[C@H](C(=O)N[C@@H](CC(=O)O)C(=O)O)C(C)C | –
– | −0.0025 | TVPLPSETDGYVAPL | –

Continued, compound first:

Compound | DR3 binding data [1, 4] | DR3 binding data [1, 5] | other results
CC(C)C[C@H](NC(=O)CNC(=O)[C@H](Cc1c[nH]c2ccccc12)NC(=O)[C@@H](N)CCCNC(=N)N)C(=O)N[C@@H](CC(C)C)C(=O)N[C@@H](CC(C)C)C(=O)N[C@@H](C)C(=O)N[C@@H](CC(C)C)C(=O)N[C@@H](CC(C)C)C(=O)N1CCC[C@H]1C(=O)N1CCC[C@H]1C(=O)NCC(=O)N[C@@H](C)C(=O)N[C@@H](C)C(=O)N[C@@H](CO)C(=O)O | – | – | DR147 Cross-binding [2]: 2; Broad Binding (5/8) ([2]; number of the 8 DR alleles bound): 6
SDVFDGDLGMGAAKG | – | −0.0025 | –
FVVIQNEDLGPASPL | −0.0025 | −0.0025 | –
CC(C)C[C@H](NC(=O)[C@@H](NC(=O)[C@H](CCC(=O)O)NC(=O)[C@H](Cc1ccccc1)NC(=O)[C@@H](NC(=O)[C@H](CCC(N)=O)NC(=O)[C@H](CC(C)C)NC(=O)[C@H](CCC(N)=O)NC(=O)[C@H](CCC(=O)O)NC(=O)[C@@H]1CCCN1C(=O)[C@H](CCC(N)=O)NC(=O)[C@H](CC(C)C)NC(=O)[C@@H]1CCCN1C(=O)[C@H](C)NC(=O)[C@@H](N)[C@@H](C)O)C(C)C)[C@@H](C)O)C(=O)O | 0.0023 | – | –
CSCC[C@H](NC(=O)[C@H](CCCNC(=N)N)NC(=O)[C@H](CO)NC(=O)[C@H](Cc1ccccc1)NC(=O)[C@H](CCC(=O)O)NC(=O)[C@H](CO)NC(=O)[C@@H](NC(=O)[C@H](CC(C)C)NC(=O)[C@H](CCC(=O)O)NC(=O)[C@H](CCCNC(=N)N)NC(=O)[C@@H](N)Cc1ccccc1)C(C)C)C(=O)N[C@@H](C)C(=O)N[C@@H](CCCNC(=N)N)C(=O)N[C@@H](CC(=O)O)C(=O)N1CCC[C@H]1C(=O)O | 0.0710 | 0.0710 | –
AIKVLRENTSPKANK | 0.0075 | 0.0075 | –
CC[C@H](C)[C@H](NC(=O)[C@@H](NC(=O)[C@H](CS)NC(=O)[C@@H](NC(=O)[C@@H]1CCCN1C(=O)[C@@H]1CCCN1C(=O)[C@H](CCC(N)=O)NC(=O)[C@@H]1CCCN1C(=O)[C@H](CC(C)C)NC(=O)[C@H](CCCNC(=N)N)NC(=O)[C@H](CCC(=O)O)NC(=O)CN)[C@@H](C)CC)[C@@H](C)O)C(=O)N[C@@H](CC(=O)O)C(=O)N[C@H](C(=O)N[C@@H](Cc1ccc(O)cc1)C(=O)O)C(C)C | – | – | DR147 Cross-binding [2]: 0
DTILWKDIFHKNNQL | – | −0.0027 | –
FPLNNTTPV [Her2/neu.121.F1] | – | – | IC50 [3]: 0.2 nM
MRRLLQETELVEPLT | – | −0.0027 | –
CC[C@H](C)[C@H](NC(=O)[C@@H]1CCCN1C(=O)[C@@H](NC(=O)[C@@H](NC(=O)[C@H](CC(N)=O)NC(=O)[C@H](CC(N)=O)NC(=O)[C@H](CC(C)C)NC(=O)[C@@H]1CCCN1C(=O)[C@@H](N)Cc1ccccc1)[C@@H](C)O)[C@@H](C)O)C(=O)O [Her2/neu.121.F1I9] | – | – | IC50 [3]: 1.6 nM
FPGGLRELQI [Her2/neu.133.F1I10] | – | – | IC50 [3]: 306 nM
TAPLQPEQLQVEETL | – | 0.0023 | –
CSCC[C@H](NC(=O)[C@H](CC(=O)O)NC(=O)[C@H](CC(=O)O)NC(=O)[C@H](CC(=O)O)NC(=O)[C@H](CCC(=O)O)NC(=O)[C@H](CC(C)C)NC(=O)[C@H](CC(C)C)NC(=O)[C@H](CO)NC(=O)[C@@H](N)CCCNC(=N)N)C(=O)NCC(=O)N[C@@H](CC(=O)O)C(=O)N[C@@H](CC(C)C)C(=O)N[C@H](C(=O)N[C@@H](CC(=O)O)C(=O)N[C@@H](C)C(=O)O)C(C)C | 0.0080 | 0.0080 | –
CC[C@H](C)[C@H](NC(=O)CNC(=O)[C@@H](NC(=O)[C@@H](NC(=O)[C@H](C)NC(=O)[C@H](CO)NC(=O)[C@@H](NC(=O)[C@@H](NC(=O)[C@H](CO)NC(=O)[C@@H](NC(=O)[C@@H](N)CC(C)C)[C@@H](C)O)[C@@H](C)CC)[C@@H](C)CC)C(C)C)C(C)C)C(=O)N[C@@H](CC(C)C)C(=O)N[C@@H](CC(C)C)C(=O)N[C@H](C(=O)N[C@H](C(=O)O)C(C)C)C(C)C | – | – | DR147 Cross-binding [2]: 1
CC[C@H](C)[C@H](NC(=O)[C@@H](NC(=O)[C@@H](NC(=O)[C@H](Cc1ccccc1)NC(=O)[C@H](CCCNC(=N)N)NC(=O)[C@H](CCC(N)=O)NC(=O)[C@@H]1CCCN1C(=O)[C@H](CC(=O)O)NC(=O)[C@H](CCCNC(=N)N)NC(=O)[C@H](C)NC(=O)[C@H](CCSC)NC(=O)[C@H](CCCNC(=N)N)NC(=O)[C@H](CO)NC(=O)[C@@H](N)Cc1ccccc1)C(C)C)C(C)C)C(=O)N[C@@H](CCC(N)=O)C(=O)O | – | 0.1600 | –
CC[C@H](C)[C@H](NC(=O)[C@H](CO)NC(=O)[C@H](CC(C)C)NC(=O)[C@H](CO)NC(=O)[C@H](C)NC(=O)[C@H](CC(N)=O)NC(=O)[C@@H](NC(=O)[C@@H]1CCCN1C(=O)[C@@H](N)Cc1ccccc1)[C@@H](C)O)C(=O)O [Her2/neu.65.F1I9] | – | – | IC50 [3]: 4.6 nM
CC(C)C[C@H](NC(=O)[C@H](C)NC(=O)[C@H](Cc1ccc(O)cc1)NC(=O)[C@H](CC(N)=O)NC(=O)[C@H](CC(=O)O)NC(=O)[C@H](CCC(=O)O)NC(=O)[C@H](Cc1ccccc1)NC(=O)[C@H](CC(C)C)NC(=O)[C@H](CCC(N)=O)NC(=O)[C@@H](NC(=O)CN)[C@@H](C)O)C(=O)N[C@@H](C)C(=O)N[C@H](C(=O)N[C@@H](CC(C)C)C(=O)N[C@@H](CC(=O)O)C(=O)O)C(C)C | – | 0.2200 | –
CC[C@H](C)[C@H](NC(=O)[C@H](Cc1ccccc1)NC(=O)[C@H](CO)NC(=O)[C@H](CC(C)C)NC(=O)[C@H](CO)NC(=O)[C@H](C)NC(=O)[C@H](CC(N)=O)NC(=O)[C@@H](NC(=O)[C@@H]1CCCN1C(=O)[C@@H](N)Cc1ccccc1)[C@@H](C)O)C(=O)O [Her2/neu.65.F1I10] | – | – | IC50 [3]: 120 nM
CC[C@H](C)[C@H](NC(=O)[C@@H]1CCCN1C(=O)[C@H](CCSC)NC(=O)[C@H](Cc1ccc(O)cc1)NC(=O)[C@H](CO)NC(=O)[C@H](CC(C)C)NC(=O)[C@H](CC(=O)O)NC(=O)[C@@H]1CCCN1C(=O)[C@H](CCCCN)NC(=O)[C@@H](NC(=O)CNC(=O)[C@H](CO)NC(=O)[C@@H]1CCCN1)C(C)C)C(=O)N[C@@H](Cc1c[nH]c2ccccc12)C(=O)N[C@@H](CCCCN)C(=O)O | −0.0027 | −0.0027 | –
